Among the data in patent US11673910B2, “Macrolides with modified desosamine sugars and uses thereof” (Zikani Therapeutics, Inc., priority 2017, dated 2023) are MIC values, retold here.

The term MIC denotes the least concentration at which growth counts as inhibited.

What all share (format): cell-based
One assay deals with S. aureus strain MP-12. Nature of the assay: Broth dilution MIC determination (CLSI) against S. aureus strain MP-12. The conditions noted are these: Staphylococcus aureus, MP12, strain MP-12. The method, boiled down:
(§1)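 CLSI broth microdilution, macrolide test compounds; MIC reported as category: ≤4 mg/L = +++, 8–<32 mg/L = ++, ≥32 mg/L = +.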
In general terms: In broth dilution the organism is exposed to a series of concentrations in liquid medium.

Assay [1] concerns P. aeruginosa strain MP-3. Nature of the assay: Broth dilution MIC determination (CLSI) against P. aeruginosa strain MP-3. Particulars: Pseudomonas aeruginosa, MP3. The essentials: as §1
Assay [2] concerns K. pneumoniae strain MP-548. Description: Broth dilution MIC determination (CLSI) against K. pneumoniae strain MP-548. The conditions noted are these: Klebsiella pneumoniae, MP548. The essentials: as §1
The test system of assay [3] is A. baumannii strain MP-15. Nature of the assay: Broth dilution MIC determination (CLSI) against A. baumannii strain MP-15. Particulars: Acinetobacter baumannii, MP15. The method, boiled down: as §1
Another assay concerns E. coli strain MP-4. Nature of the assay: Broth dilution MIC determination (CLSI) against E. coli strain MP-4. The conditions noted are these: Escherichia coli, MP4. The method, boiled down: as §1

Converted amounts (≈) assume the structure as drawn. A value given as a limit tells only on which side of the number the result lay.

Consider `CC[C@H]1OC(=O)C(C)C(=O)[C@H](C)[C@@H](OC2OC(C(=O)NC)CC(N(C)C)C2O)[C@](C)(OC)C[C@@H](C)CN[C@H](C)[C@H]2NC(=O)O[C@@]21C` (stereo partly drawn) [Compound 166, 3-Descladinosyl-3-oxo-6-O-methyl-N9a-desmethyl-11,12-dideoxy-12,11-(oxycarbonylimino)-5′-desmethyl-5′-(N-methylcarboxamido) Azithromycin], for which the minimum inhibitory concentration (MIC) is at least 32 µg/mL in the assay with S. aureus strain MP-12; at least 32 µg/mL in assay [1]; at least 32 µg/mL in assay [2]; at least 32 µg/mL in assay [3]; 8 to 32 µg/mL (≈ 12.2 to 48.7 µM) with E. coli strain MP-4.

As to `CC[C@H]1OC(=O)[C@@](C)(F)C(=O)[C@H](C)[C@@H](O[C@@H]2OC(CNCc3ccc(-c4cncnc4)cc3)CC(N(C)C)C2O)[C@](C)(OC)C[C@@H](C)C(=O)[C@H](C)[C@H]2NC(=O)O[C@@]21C` (stereo partly drawn) [Compound 92], the MIC against S. aureus strain MP-12 was at most 4 µg/mL; in assay [1] it was at least 32 µg/mL; in assay [2], at least 32 µg/mL; in assay [3], at least 32 µg/mL; in the assay with E. coli strain MP-4, at least 32 µg/mL.

Take `CC[C@H]1OC(=O)C(C)C(=O)[C@H](C)[C@@H](O[C@@H]2O[C@H](CN)CC(N(C)C)[C@H]2O)[C@](C)(OC)C[C@@H](C)CN[C@H](C)[C@H]2NC(=O)O[C@@]21C` (stereo partly drawn) [Compound 174, 3-Descladinosyl-3-oxo-6-O-methyl-N9a-desmethyl-11,12-dideoxy-12,11-(oxycarbonylimino)-11-methyl-6′-amino Azithromycin]: the MIC (against S. aureus strain MP-12; in assay [1]; in assay [2]; in assay [3]; in the assay with E. coli strain MP-4) was at least 32 µg/mL each time.

For the compound `CC[C@H]1OC(=O)C(C)C(=O)[C@H](C)[C@@H](O[C@@H]2OC(CN[C@@H](C)c3ccc(F)cc3)CC(N(C)C)C2O)[C@](C)(OC)C[C@@H](C)CN[C@H](C)[C@H]2NC(=O)O[C@@]21C` (stereo partly drawn) [Compound 32], the MIC is at least 32 µg/mL against S. aureus strain MP-12; at least 32 µg/mL in assay [1]; at least 32 µg/mL in assay [2]; at least 32 µg/mL in assay [3]; at most 4 µg/mL in the assay with E. coli strain MP-4.

As for `CC[C@H]1OC(=O)C(C)C(=O)[C@H](C)[C@@H](OC2OC(CN3CCCCC3)CC(N(C)C)C2O)[C@](C)(OC)C[C@@H](C)CN[C@H](C)[C@H]2NC(=O)O[C@@]21C` (stereo partly drawn) [Compound 123, 3-Desdadinosyl-3-oxo-6-O-methyl-N9a-desmethyl-11,12-dideoxy-12,11-(oxycarbonylimino)-6′-(1-piperidinyl) Azithromycin], the MIC in the assay with S. aureus strain MP-12 was at least 32 µg/mL; in assay [1], at least 32 µg/mL; in assay [2], 8 to 32 µg/mL (≈ 11.5 to 45.9 µM); in assay [3] it was at least 32 µg/mL; in the assay on E. coli strain MP-4 it was at most 4 µg/mL.

Regarding `CC[C@H]1OC(=O)[C@@]2(C)CCO[C@](C)(C[C@@H](C)CN[C@H](C)[C@H]3NC(=O)O[C@@]31C)[C@H](O[C@@H]1O[C@H](CO)C[C@H](N(C)C)[C@H]1O)[C@@H](C)C2=O` [Compound 195], the MIC (against S. aureus strain MP-12; in assay [1]; in assay [2]; in assay [3]; in the assay on E. coli strain MP-4) was at least 32 µg/mL throughout.

With `CC[C@H]1OC(=O)C(C)C(=O)[C@H](C)[C@@H](O[C@@H]2OC(CNc3ccc(C#N)cc3)CC(N(C)C)C2O)[C@](C)(OC)C[C@@H](C)CN[C@H](C)[C@H]2NC(=O)O[C@@]21C` (stereo partly drawn) [Compound 50], the MIC is at least 32 µg/mL in the assay with S. aureus strain MP-12; at least 32 µg/mL in assay [1]; at least 32 µg/mL in assay [2]; at least 32 µg/mL in assay [3]; 8 to 32 µg/mL (≈ 11 to 43.8 µM) in the assay on E. coli strain MP-4.

Turning to `CC[C@H]1OC(=O)C(C)C(=O)[C@H](C)[C@@H](O[C@@H]2OC(CNc3ccc(F)cc3)CC(N(C)C)C2O)[C@](C)(OC)C[C@@H](C)CN[C@H](C)[C@H]2NC(=O)O[C@@]21C` (stereo partly drawn) [Compound 46], the MIC in the assay on S. aureus strain MP-12 was 8 to 32 µg/mL (≈ 11.1 to 44.3 µM); in assay [1], at least 32 µg/mL; in assay [2], 8 to 32 µg/mL (≈ 11.1 to 44.3 µM); in assay [3], at least 32 µg/mL; with E. coli strain MP-4, at most 4 µg/mL.

Consider `CC[C@H]1OC(=O)C(C)C(=O)[C@H](C)[C@@H](O[C@@H]2OC(CNCc3ccc(OC)cc3)CC(N(C)C)C2O)[C@](C)(OC)C[C@@H](C)CN[C@H](C)[C@H]2NC(=O)O[C@@]21C` (stereo partly drawn) [Compound 42], for which the MIC with S. aureus strain MP-12 is at least 32 µg/mL; in assay [1] it was at least 32 µg/mL; in assay [2], at least 32 µg/mL; in assay [3], at least 32 µg/mL; with E. coli strain MP-4, at most 4 µg/mL.

For `CC[C@H]1OC(=O)C(C)C(=O)[C@H](C)[C@@H](OC2OC(CNCC(F)F)CC(N(C)C)C2O)[C@](C)(OC)C[C@@H](C)CN[C@H](C)[C@H]2NC(=O)O[C@@]21C` (stereo partly drawn) [Compound 136, 3-Descladinosyl-3-oxo-6-O-methyl-N9a-desmethyl-11,12-dideoxy-12,11-(oxycarbonylimino)-6′-difluoroethylamino Azithromycin], the MIC was 8 to 32 µg/mL (≈ 11.5 to 46.2 µM) against S. aureus strain MP-12; at least 32 µg/mL in assay [1]; 8 to 32 µg/mL (≈ 11.5 to 46.2 µM) in assay [2]; at least 32 µg/mL in assay [3]; at most 4 µg/mL against E. coli strain MP-4.

Take `CC[C@H]1OC(=O)C(C)C(=O)[C@H](C)[C@@H](O[C@@H]2OC(CNCc3ccc4nccnc4c3)CC(N(C)C)C2O)[C@](C)(OC)C[C@@H](C)CN[C@H](C)[C@H]2NC(=O)O[C@@]21C` (stereo partly drawn) [Compound 23]: the minimal inhibitory concentration (MIC) against S. aureus strain MP-12 is at least 32 µg/mL; in assay [1], at least 32 µg/mL; in assay [2], at least 32 µg/mL; in assay [3], at least 32 µg/mL; against E. coli strain MP-4 it was at most 4 µg/mL.

On to `CC[C@H]1OC(=O)C(C)C(=O)[C@H](C)[C@@H](O[C@@H]2OC(CNCc3ccn(C)n3)CC(N(C)C)C2O)[C@](C)(OC)C[C@@H](C)CN[C@H](C)[C@H]2NC(=O)O[C@@]21C` (stereo partly drawn) [Compound 21], for which the MIC (against S. aureus strain MP-12; in assay [1]; in assay [2]; in assay [3]; in the assay on E. coli strain MP-4) was at least 32 µg/mL in each case.
